Reference: patent US7811599B2, “Pharmaceutical combinations comprising a fungicide, a bacteriostatic sulphonamide and an antibacterial compound for topical application” (priority 2001, dated 2010)
≈ marks a conversion by molar mass, not a printed value.

Tests used:
Format in all cases: cell-based
[1] = test system: Escherichia coli; assay: MIC values of active ingredients (in nutrient liquid); conditions: Table I
Experimental: (§1) The experiments are carried out in an ambience free of germs. […] The following compounds were tested: azithromycin, clarithromycin, erythromycin, miconazole, […]-sulphate. Test organisms: Bacteria: Escherichia coli, Pseudomonas aeruginosa, Serratia marcescens, Staphylococcus aureus, Streprococcus pyogenes. Fungi: Aspergillus flavus, Fusarium oxysporum, Candida albicans, Candida parapsilosus. Nutrient media: Soye bouillon, Sabouraud nutrient liquor. Solvents: methanol a.r. and for […]-sulphate the mixture of butanol:ethanol:water in the ratio of 1:1:2. Negative control: nutrient medium exempt of test organisms. Positive control: nutrient medium and 10 μL of the inoculum. Following preparation of the inoculum and incubation the MIC values were determined according to the above.

[2] = test system: Pseudomonas aeruginosa; assay: as above; conditions: Table I
Experimental: as §1

[3] = test system: Serratia marcescens; assay: as above; conditions: Table I
Experimental: as §1

[4] = test system: Staphylococcus aureus; assay: as above; conditions: Table I
Experimental: as §1

[5] = test system: Streptococcus pyogenes; assay: as above; conditions: Table I
Experimental: as §1

[6] = test system: Aspergillus flavus; assay: as above; conditions: Table I
Experimental: as §1, with “For fungi: Sabouraud nutrient liquid containing glucose, […] digested casein and water. The experiments” for “The experiments”

[7] = test system: Candida albicans; assay: as above; conditions: Table I
Experimental: as §1, with “For fungi: Sabouraud nutrient liquid containing glucose, […] digested casein and water. The experiments” for “The experiments”

[8] = test system: Candida parapsilosis; assay: as above; conditions: Table I; for MIC: Lodderomyces parapsilosis
Experimental: as §1, with “For fungi: Sabouraud nutrient liquid containing glucose, […] digested casein and water. The experiments” for “The experiments”

[9] = test system: Fusarium oxysporum; assay: as above; conditions: Table I
Experimental: as §1, with “For fungi: Sabouraud nutrient liquid containing glucose, […] digested casein and water. The experiments” for “The experiments”

[10] = test system: all tested bacteria and fungi; assay: MIC values of active ingredients on 9 different microbe strains, summary in words; conditions: summary of Table I
Experimental: For fungi: Sabouraud nutrient liquid containing glucose, tripsine digested casein and water.
The experiments are carried out in an ambience free of germs.
The following compounds were tested: azithromycin, clarithromycin, erythromycin, miconazole, primicin-sulphate. Test organisms: Bacteria: Escherichia coli, Pseudomonas aeruginosa, Serratia marcescens, Staphylococcus aureus, Streprococcus pyogenes. Fungi: Aspergillus flavus, Fusarium oxysporum, Candida albicans, Candida parapsilosus. Nutrient media: Soye bouillon, Sabouraud nutrient liquor. Solvents: methanol a.r. and for primicin-sulphate the mixture of butanol:ethanol:water in the ratio of 1:1:2. Negative control: nutrient medium exempt of test organisms. Positive control: nutrient medium and 10 μL of the inoculum.
Following preparation of the inoculum and incubation the MIC values were determined according to the above.

Row | Compound | MIC [1] [µg/mL] | MIC [2] [µg/mL] | MIC [3] [µg/mL] | MIC [4] [µg/mL] | MIC [5] [µg/mL] | MIC [6] [µg/mL] | MIC [7] [µg/mL] | MIC [8] [µg/mL] | MIC [9] [µg/mL] | activity in the MIC test, in words [10] | MIC values [1] | MIC values [2] | MIC values [3] | MIC values [4] [µg/mL] | MIC values [5] [µg/mL] | MIC values [6] | MIC values [7] [µg/mL] | MIC values [8] [µg/mL] | MIC values [9]
1 | CC[C@H]1OC(=O)[C@H](C)[C@@H](O[C@H]2C[C@@](C)(OC)[C@@H](O)[C@H](C)O2)[C@H](C)[C@@H](O[C@@H]2O[C@H](C)C[C@H](N(C)C)[C@H]2O)[C@](C)(O)C[C@@H](C)CN(C)[C@H](C)[C@@H](O)[C@]1(C)O [azithromycin] | 6 (≈ 8.01 µM) | 65 (≈ 86.8 µM) | 8 (≈ 10.7 µM) | 2 (≈ 2.67 µM) | 3 (≈ 4.01 µM) | > 500 | > 500 | 500 (≈ 668 µM) | > 500 | effective on all tested bacteria | – | – | – | – | – | – | – | – | –
2 | CC[C@H]1OC(=O)[C@H](C)[C@@H](O[C@H]2C[C@@](C)(OC)[C@@H](O)[C@H](C)O2)[C@H](C)[C@@H](O[C@@H]2O[C@H](C)C[C@H](N(C)C)[C@H]2O)[C@](C)(OC)C[C@@H](C)C(=O)[C@H](C)[C@@H](O)[C@]1(C)O [clarithromycin] | 95 (≈ 127 µM) | 80 (≈ 107 µM) | 100 (≈ 134 µM) | 0.2 (≈ 0.267 µM) | 1 (≈ 1.34 µM) | > 100 | > 100 | > 100 | > 100 | – | – | – | – | – | – | – | – | – | –
3 | CC[C@H]1OC(=O)[C@H](C)[C@@H](O[C@H]2C[C@@](C)(OC)[C@@H](O)[C@H](C)O2)[C@H](C)[C@@H](O[C@@H]2O[C@H](C)C[C@H](N(C)C)[C@H]2O)[C@](C)(O)C[C@@H](C)C(=O)[C@H](C)[C@@H](O)[C@]1(C)O [erythromycin] | 100 (≈ 136 µM) | 90 (≈ 123 µM) | 300 (≈ 409 µM) | 1 (≈ 1.36 µM) | 3 (≈ 4.09 µM) | > 500 | > 500 | 500 (≈ 681 µM) | > 500 | – | – | – | – | – | – | – | – | – | –
4 | Clc1ccc(COC(Cn2ccnc2)c2ccc(Cl)cc2Cl)c(Cl)c1 (stereo not drawn) [miconazole] | > 500 | > 500 | > 500 | 3 (≈ 7.21 µM) | 0.5 (≈ 1.2 µM) | 2 (≈ 4.81 µM) | 0.5 (≈ 1.2 µM) | 0.2 (≈ 0.481 µM) | > 8 | inhibits all tested fungi and cocci | – | – | – | – | – | – | – | – | –
5 | primycin | – | – | – | – | – | – | – | – | – | acceptably active against Candida type fungi but not against all tested bacteria | 100< μg/ml | 100< μg/ml | 100< μg/ml | 0.2 | 0.5 | 100< μg/ml | 18 | 5.0 | 100< μg/ml
